# Several values for one entry are separate records, joined by “and”; a condition that tells them apart may be missing. Identical values can stand only once. Like-named read-outs stand apart in the source and are kept apart here.
# Legend:
# [1] = biological target: T1, MCR-1 (Homo sapiens, UniProt Q01726); test: cAMP assay for melanocortin receptors, HEK 293 cells expressing MCR-1; assay type: cell-based; details: for EC50: 50% of maximal cAMP production, read-out: MC-1 EC50 (cAMP); for MC-1 Max (pmole) cAMP produced: maximum amount of cAMP
# T1 construct: expressed in transfected cells; host or cells: HEK 293
# T1 sequence (Q01726 whole entry): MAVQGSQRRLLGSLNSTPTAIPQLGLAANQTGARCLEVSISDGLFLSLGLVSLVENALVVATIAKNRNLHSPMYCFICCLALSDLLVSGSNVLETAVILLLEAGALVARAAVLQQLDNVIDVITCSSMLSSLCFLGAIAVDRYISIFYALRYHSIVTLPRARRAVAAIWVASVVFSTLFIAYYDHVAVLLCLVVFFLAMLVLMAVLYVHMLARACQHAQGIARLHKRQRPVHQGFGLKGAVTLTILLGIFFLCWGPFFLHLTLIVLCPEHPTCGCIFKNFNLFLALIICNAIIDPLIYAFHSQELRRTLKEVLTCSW
# Description: (§1) HEK 293 cells expressing MCR-1, MCR-3, MCR-4 and MCR-5 were used (see Example II). Cells were plated at 20,000 cells per well in a 96-well plate coated with collagen. The next day, cells were pretreated with 75 μl of 0.4 mM 3-isobutyl-1-methylxanthine (IBMX) in low serum medium containing DMEM, 25 mM HEPES, non-essential amino acids, vitamins, 100 units/ml penicillin, 100 μg/ml streptomycin and 0.1% COSMIC CALF SERUM. IBMX is an inhibitor of cAMP phosphodiesterase. The pretreatment was carried out for 10 min at 37° C.
# (§2) Following pretreatment, 25 μl of diluted isoquinoline compound was added to the wells, and cells were incubated for 15 min at 37° C. Cells were lysed by adding 25 μl saponin lysis buffer and incubating 2 to 5 min. Plates were covered and stored at −20° C.
# (§3) cAMP concentration was determined by ELISA. Briefly, 96 well ELISA plates were coated with goat anti-cAMP antibody in PBS for 12 to 72 hr at 4° C. 50 μl of sample was mixed with 50 μl of cAMP ELISA buffer containing 1% bovine serum albumin, 10% heat-inactivated donor horse serum, 1% normal mouse serum and 0.05% TWEEN-20 in PBS, and the diluted sample was added to the coated ELISA plate. Standards of known concentrations of cAMP were added to separate wells. 25 μl of 16 ng/ml cAMP-conjugated horse radish peroxidase (HRP) (cAMP-HRP) was added to each well, and the plates were […] at room temperature. Plates were washed and the binding of cAMP-HRP was detected with 3,3′,5,5′-tetramethylbenzidine (TMB) and hydrogen peroxide using standard immunoassay procedures.
# (§4) Various isoquinoline compounds were tested for their ability to activate MC receptor by measuring cAMP as described in Example III.
# [2] = biological target: T2, MCR-4 (Homo sapiens, UniProt P32245); test: Melanocortin receptor binding assay, competition with 125I-HP 467, HEK 293 cells expressing hMCR-4; details: read-out: MC-4 IC50
# T2 construct: expressed in transfected cells; host or cells: HEK 293
# T2 sequence (P32245 whole entry): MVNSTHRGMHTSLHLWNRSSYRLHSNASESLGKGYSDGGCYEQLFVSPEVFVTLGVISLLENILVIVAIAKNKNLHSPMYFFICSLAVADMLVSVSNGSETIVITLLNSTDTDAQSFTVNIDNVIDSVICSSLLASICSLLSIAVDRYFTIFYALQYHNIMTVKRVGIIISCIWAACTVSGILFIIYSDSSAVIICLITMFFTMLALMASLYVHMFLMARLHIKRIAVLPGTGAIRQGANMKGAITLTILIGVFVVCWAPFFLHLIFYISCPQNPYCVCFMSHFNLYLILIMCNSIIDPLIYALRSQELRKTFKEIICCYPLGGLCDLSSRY
# In short: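 Test compounds compete on intact HEK 293 cells carrying hMCR-1 (2×10^4 per tube) or hMCR-4 (4×10^3 per tube), suspended in PBS, 10% calf serum, 1 mM CaCl2.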
# [3] = system: TNF-α; test: Reduction of lipopolysaccharide-induced tumor necrosis factor levels in mice; assay type: in vivo, BALB/c female mice; details: for % TNF-α Inhibtion, IP 30: 30 μg per mouse; for % TNF-α Inhibtion, IP 30 / % TNF-α Inhibtion, IP 300 / % TNF-α Inhibtion, Oral 300 / % TNF-α Inhibtion, Oral 600 / % TNF-α Inhibtion, IP 100: plasma 90 or 105 minutes after LPS, mean ± SEM; for % TNF-α Inhibtion, IP 300 / % TNF-α Inhibtion, Oral 300: 300 μg per mouse; for % TNF-α Inhibtion, Oral 600: 600 μg per mouse; for % TNF-α Inhibtion, IP 100: 100 μg per mouse
# Description: BALB/c female mice weighing approximately 20 g were placed into a control group and a treated group. Five mg/kg of LPS in 0.9% saline was administered (100 μl to give 100 μg LPS per mouse) by intraperitoneal (IP) injection to all mice. Mice in the treatment group received either 30, 100, 300 or 600 μg of various isoquinoline compounds per mouse in a volume of 100 μl of PBS. Control mice received 100 μl of saline alone. One minute after initial injections all mice received the LPS injection. As a positive control, 100 μg of HP 228 was injected per mouse.
# Blood samples were collected from the orbital sinus of treated and control mice 90 minutes or 105 minutes after LPS administration. The plasma was separated by centrifugation at 3000×g for 5 min and stored at −20° C. Samples were thawed and diluted, if TNF-α concentration was greater than 3200 pg/ml, with PBS containing 1% bovine serum albumin, 10% donor horse serum, 1% normal mouse serum, 0.05% TWEEN-20 and 0.05% thimerosal. A 100 μl sample of plasma was assayed by ELISA for TNF-α. Briefly, ELISA plates were coated with hamster anti-mouse TNF-α antibody (Genzyme; Cambridge Mass.). Samples or known concentrations of TNF-α were added to the coated plates and incubated for 2 hr at 37° C. Plates were washed and subsequently incubated with biotinylated rabbit anti-mouse TNG-α for 1 hr at 37° C. Plates were washed and incubated with streptavidin-HRP for 1 hr at 37° C., and HRP activity was detected with hydrogen peroxide and o-phenylenediamine (OPD) using standard immunoassay procedures.
# The mean (±SEM) TNF-α level in five mice from each group was determined and the percent reduction in TNF-α levels was calculated.
# [4] = biological target: T3, MCR-3 (Homo sapiens, UniProt P41968); test: cAMP assay for melanocortin receptors, HEK 293 cells expressing MCR-3; assay type: cell-based; details: read-out: MC-3 EC50 (cAMP)
# T3 construct: expressed in transfected cells; host or cells: HEK 293
# T3 sequence (P41968 whole entry): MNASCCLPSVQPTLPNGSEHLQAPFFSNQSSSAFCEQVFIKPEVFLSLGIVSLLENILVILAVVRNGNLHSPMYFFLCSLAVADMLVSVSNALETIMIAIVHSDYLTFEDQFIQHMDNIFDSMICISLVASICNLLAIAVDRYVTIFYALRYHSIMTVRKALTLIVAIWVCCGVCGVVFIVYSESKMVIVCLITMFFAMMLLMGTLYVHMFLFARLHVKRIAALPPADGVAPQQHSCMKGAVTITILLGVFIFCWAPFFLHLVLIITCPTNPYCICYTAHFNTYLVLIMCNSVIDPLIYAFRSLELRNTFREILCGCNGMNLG
# Description: as §1, §2, §3, §4
# [5] = biological target: T4, MCR-5 (Homo sapiens, UniProt P33032); test: cAMP assay for melanocortin receptors, HEK 293 cells expressing MCR-5; assay type: cell-based; details: read-out: MC-5 EC50 (cAMP)
# T4 construct: expressed in transfected cells; host or cells: HEK 293
# T4 sequence (P33032 whole entry): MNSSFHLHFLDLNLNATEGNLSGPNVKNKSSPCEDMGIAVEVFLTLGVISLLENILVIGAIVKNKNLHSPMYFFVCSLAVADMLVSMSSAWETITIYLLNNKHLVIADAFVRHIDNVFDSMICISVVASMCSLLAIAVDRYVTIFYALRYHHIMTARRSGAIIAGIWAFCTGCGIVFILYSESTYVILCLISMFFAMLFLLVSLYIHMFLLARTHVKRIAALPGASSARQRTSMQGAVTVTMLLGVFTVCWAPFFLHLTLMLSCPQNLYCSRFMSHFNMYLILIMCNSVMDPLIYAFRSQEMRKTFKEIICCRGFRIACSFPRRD
# Description: as §1, §2, §3, §4
# [6] = biological target: T2, MCR-4; test: cAMP assay for melanocortin receptors, HEK 293 cells expressing MCR-4; assay type: cell-based; details: for MC-4 Max (pmole) cAMP produced: maximum amount of cAMP; for EC50: read-out: MC-4 EC50 (cAMP)
# Description: as §1, §2, §3, §4
# [7] = competition with 125I-HP 467, HEK 293 cells expressing MCR-4
# [8] = TRG 2408 and TRG 2409 libraries, inhibition of 125I-HP 467 binding
Compound,EC50 [1],MC-1 Max (pmole) cAMP produced [1],"IC50 [2, 7]",EC50 [4],EC50 [5],MC-4 Max (pmole) cAMP produced [6],EC50 [6],"IC50 [2, 8]","IC50 ([2]; TRG 2406 and TRG 2407 libraries, inhibition of binding of 125I-HP 467)","IC50 ([2]; TRG 2405 section, inhibition of binding of 125I-HP 467, HEK 293 cells expressing MCR-4)","% TNF-α Inhibtion, IP 30 [3]","% TNF-α Inhibtion, IP 300 [3]","% TNF-α Inhibtion, Oral 300 [3]","% TNF-α Inhibtion, Oral 600 [3]",decrease of TNF-α levels ([3]; LPS treated mice),"% TNF-α Inhibtion, IP 100 [3]","inhibiting TNF-α ([3]; LPS treated mice, both i.p. and oral administration)"
CNC(CN)CCCCN1Cc2ccccc2C(CNC2CCCCC2)C1c1ccc(Oc2ccccc2)cc1 (stereo not drawn) [TRG 2405-252],16 µM,33.07 pmol,,> 50 µM,> 50 µM,39.24 pmol,18.5 µM,,,,49 ± 14 %,90 ± 2 %,,55 ± 13 %,particularly effective at decreasing TNF-α,,
CNC(CN)CCCCN1Cc2ccccc2C(CNC2CCCCC2)C1c1ccc(N(C)C)cc1 (stereo not drawn) [TRG 2405-235],29.9 µM,17.07 pmol,,,,,> 50 µM,,,,8 ± 7%,50 ± 9%,,,,39 ± 7%,
CNC(CN)CCCCN1Cc2ccccc2C(CNC2CCCCC2)C1c1ccc(Br)cc1 (stereo not drawn) [TRG 2405-242],13.1 µM,55.89 pmol,,> 50 µM,> 50 µM,,> 50 µM,,,,21 ± 8%,68 ± 5 %,,,,60 ± 4 %,
CNC(CN)CCCCN1Cc2ccccc2C(CNC2CCCCC2)C1c1ccc(C(F)(F)F)cc1 (stereo not drawn) [TRG 2405-238],19.9 µM,29.82 pmol,,> 50 µM,> 50 µM,,> 50 µM,,,,19 ± 7%,84 ± 18 %,,6 ± 28%,,73 ± 1 %,
CNC(CN)CCCCN1Cc2ccccc2C(CNC2CCCCC2)C1c1ccc(O)cc1 (stereo not drawn) [TRG 2405-246],23.7 µM,12.48 pmol,,> 50 µM,> 50 µM,,> 50 µM,,,,27 ± 9%,80 ± 3 %,,−29 ± 31 %,,,
CNC(CN)CCCCN1Cc2ccccc2C(CNC2CCCCC2)C1c1ccc(Cl)cc1Cl (stereo not drawn) [TRG 2405-190],8.52 µM,33.56 pmol,,,,100.48 pmol,46.3 µM,,,,70 ± 11 %,83 ± 11 %,,,particularly effective at decreasing TNF-α,−6 ± 7%,
CNC(CN)CN1Cc2ccccc2C(CNC2CCCCC2)C1c1ccc(O)cc1 (stereo not drawn) [TRG 2405-156],20.6 µM,16.01 pmol,,> 50 µM,> 50 µM,,> 50 µM,,,20.6 µM,30 ± 13%,48 ± 16%,,,,12 ± 7%,
CNC(CN)CCCCN1Cc2ccccc2C(CNC2CCCCC2)C1c1ccc(-c2ccccc2)cc1 (stereo not drawn) [TRG 2405-241],10.4 µM,66.67 pmol,,> 50 µM,> 50 µM,32.32 pmol,28.5 µM,,,,26 ± 15%,45 ± 9%,38 ± 9 %,74 ± 8 %,particularly effective at decreasing TNF-α,75 ± 3 %,
CCNc1ccc(C2C(CNC3CCCCC3)c3ccccc3CN2CCCCC(CN)NC)cc1 (stereo not drawn) [TRG 2405-239],3.67 µM,20.6 pmol,,> 50 µM,> 50 µM,,> 50 µM,,,,13 ± 8%,66 ± 9 %,,9 ± 14%,,10 ± 6%,

# The next lines start with results.
EC50 [1],MC-1 Max (pmole) cAMP produced [1],"IC50 [2, 7]",EC50 [4],EC50 [5],MC-4 Max (pmole) cAMP produced [6],EC50 [6],"IC50 [2, 8]","IC50 ([2]; TRG 2406 and TRG 2407 libraries, inhibition of binding of 125I-HP 467)","IC50 ([2]; TRG 2405 section, inhibition of binding of 125I-HP 467, HEK 293 cells expressing MCR-4)",Compound,"% TNF-α Inhibtion, IP 30 [3]","% TNF-α Inhibtion, IP 300 [3]","% TNF-α Inhibtion, Oral 300 [3]","% TNF-α Inhibtion, Oral 600 [3]",decrease of TNF-α levels ([3]; LPS treated mice),"% TNF-α Inhibtion, IP 100 [3]","inhibiting TNF-α ([3]; LPS treated mice, both i.p. and oral administration)"
0.87 µM,170 pmol,15.1 µM,,,,,,,,CCCCNc1ccc(C2C(CNC3CCCCC3)c3ccccc3CN2CCCCC(CN)NC)cc1 (stereo not drawn) [TRG 2409-14],31 ± 7%,76 ± 7 %,41 ± 9 %,67 ± 4 %,,,
> 50 µM,,,> 50 µM,> 50 µM,,> 50 µM,,,,CNC(CN)CCCCN1Cc2ccccc2C(CNC2CCCCC2)C1c1ccc2cccc(O)c2n1 (stereo not drawn) [TRG 2405-262],,83 ± 3 %,,,,,
2.83 µM,125.79 pmol,,,,,,45.6 µM,,,CCNc1ccc(C2C(CNC3CCCCC3)c3ccccc3CN2CCCCC(CN)NC)cc1 (stereo not drawn) [TRG 2408-30],30 ± 14%,78 ± 3 %,42 ± 14 %,74 ± 4 %,particularly effective at decreasing TNF-α,,particularly effective at inhibiting TNF-α
1.01 µM,200 pmol,10.7 µM,,,,,,,,CCCCNc1ccc(C2C(CNCc3ccccc3O)c3ccccc3CN2CCCCC(CN)NC)cc1 (stereo not drawn) [TRG 2409-2],57 ± 6 %,65 ± 14%,58 ± 2 %,65 ± 2 %,,,
,,,,,,,,0.11 µM,,CNC(CN)CCCCN1Cc2ccccc2C(CN)C1c1ccc(Cl)cc1Cl (stereo not drawn) [TRG 2407-39],24 ± 17%,72 ± 5 %,,,,,
8.5 µM,22.55 pmol,,> 50 µM,> 50 µM,69.11 pmol,16.6 µM,,,,CCCOc1ccc(C2C(CNC3CCCCC3)c3ccccc3CN2CCCCC(CN)NC)cc1 (stereo not drawn) [TRG 2405-253],46 ± 8%,80 ± 7%,,,particularly effective at decreasing TNF-α,,
< 0.1 µM,,,,,,,2.61 µM,,,CCNc1ccc(C2C(CNC3CCCCC3)c3ccccc3CN2CCCC(CN)NCCc2ccccc2)cc1 (stereo not drawn) [TRG 2408-62],71 ± 6 %,84 ± 8 %,45 ± 11%,35 ± 5%,,,
< 0.1 µM,,,,,,,6.02 µM,,,CCNc1ccc(C2C(CNCc3ccccc3O)c3ccccc3CN2CCCC(CN)NCCc2ccccc2)cc1 (stereo not drawn) [TRG 2408-57],76 ± 8 %,86 ± 2 %,21 ± 11%,72 ± 7 %,,83 ± 2 % and 87 ± 5 %,

# From patent publication US6608082B1, “Treatment of erectile dysfunction using isoquinoline compound melanocortin receptor ligands” (Lion Bioscience AG, priority 1998, dated 2003)
